As usually defined, the logP is the decadic logarithm of the partition coefficient of the neutral form, usually between octanol and water.

The values below come from the SangsterLogP compilation.

As for `Cc1ccc(C)c2ccccc12`, the logP is 4.22.

On to `Cc1ccc2cc(C)c(C)cc2c1`, for which the logP amounted to 4.7.

With `Cc1ccc(C)c2c(C)cccc12`, the logP was found to be 4.48.

As to `Cc1ccc2c(C)ccc(C)c2c1`, the logP turned out to be 4.55.

Compound `Cc1ccc2cc(C)ccc2c1` displayed a logP of 4.39.

For the compound `Cc1ccc2c(C)cccc2c1`, the logP amounted to 4.27.

`Cc1cc2c(C)ccc(C)c2cc1C` yielded a logP of 4.74.

In the case of `Cc1ccc2c(C)c(C)ccc2c1C`, the logP amounted to 4.95.

`Cc1cccc2c(C)cccc12`: the logP is 4.22.

Compound `Cc1ccc2ccccc2c1` had a logP of 3.96.

`Cc1cc(C)c2cc(C)ccc2c1` registered a logP of 4.38.

With `Cc1ccc2ccc(C)cc2c1`, the logP was found to be 4.37.

Compound `Cc1ccc2cccc(C)c2c1` displayed a logP of 4.19.

For `Cc1cc(C)c2c(C)cccc2c1`, the logP came out at 4.52.

`Cc1cc(C)c2ccccc2c1C` displayed a lipophilicity (logP) of 4.49.
